Assay [1] relates to H3K27 methylation in G401 cell. Kind of assay: ELISA (H3K27 methylation) assay. The assay is classed as cell-based. To be noted: Homo sapiens, G-401, ELISA Qualified assay, 48 h, read-out: (c) IC50. The procedure:
ELISA (H3K27 Methylation) Assay
Representative compounds of the present invention were serially and separately diluted 3-fold in DMSO to obtain a total of eight or twelve concentrations. Then the compounds were added to G401 cell cultured in 384-well plate at 1:500 dilution to obtain the highest concentration of 20 μM. The cells were further cultured for 48 h before ELISA procedure.
ELISA protocol: Cell lysates were transferred to the wells of a 384-well plate and the final volume was adjusted to 50 μL per well with PBS. The plate was sealed, centrifuged at 2,000 rpm for 2 min and incubated at 4° C. for about 16 h. The plate was washed with TBST buffer (1×TBS (10×TBS: 24.2 g Tris (Sigma, T6066), 80 g NaCl (Sigma, S3014) to 1 L of water and adjust pH to 7.6 with HCl) with 0.1% Tween-20). Blocking buffer (TBST, 5% BSA; 50 μL per well) was added and the plate was incubated for 1 h at rt. The blocking buffer was removed and primary antibody was added (30 μL per well). […] The primary antibody was incubated in the plate at rt for 1 h. The wells were washed with TBST and incubated with secondary antibody for 1 h at rt. […] After 1 h of incubation at rt, the wells were washed with TBST. […] The signal was read using a PerkinElmer Envision Reader. The H3K27 methylation readouts were normalized using H3 signal and then percentage inhibition was calculated against the samples treated with DMSO. The data were then fit to a dose response curve using the program Helios to get the IC50 values of the test compound.

Assay [2] addresses wild type PRC2 (wtPRC2) complex (Homo sapiens (Human), UniProt O75530). Nature of the assay: EED LC-MS assay. Format: biochemical. The conditions noted are these: EED LC-MS Qualified assay; read-out: (b) IC50. The procedure:
EED LC-MS Assay Representative compounds of the present invention were serially and separately diluted 3-fold in DMSO to obtain a total of eight or twelve concentrations. […] A 6 μL solution of 3 μM of the peptide substrate H3K27Me0 (histone H3[21-44]-biotin) in reaction buffer was added to initiate each reaction. […] The data were then fit to a dose response equation using the program Helios to get the IC50 values of the test compound.

The next assay has as its target EED (1-441)-His protein (Homo sapiens (Human), UniProt O75530). Kind of assay: EED-H3K27Me3 peptide competition binding assay by AlphaScreen. The conditions noted are these: EED Alphascreen binding Qualified assay. The procedure:
Then 4 μL of detection beads mix was added to the plate and incubate in the dark at the rt for 1 h. The final concentration of donor and acceptor beads was 10 μg/mL for each. […] The data were then fit to a dose response equation using the program Helios (Novartis) to get the IC50 values. […] Sebaugh, J. […] Each compound was counter screened to determine if it interfered with the AlphaScreen beads. […] The plates were then incubated for 1 h at rt in dark before being read on EnVison.

Among the data in patent publication US10676479B2, “Imidazolepyridine compounds and uses thereof” (Novartis AG, priority 2016, dated 2020) are IC50 values, retold here.

Structures are written as SMILES.

Chain of EED (1-441)-His protein (O75530 whole entry): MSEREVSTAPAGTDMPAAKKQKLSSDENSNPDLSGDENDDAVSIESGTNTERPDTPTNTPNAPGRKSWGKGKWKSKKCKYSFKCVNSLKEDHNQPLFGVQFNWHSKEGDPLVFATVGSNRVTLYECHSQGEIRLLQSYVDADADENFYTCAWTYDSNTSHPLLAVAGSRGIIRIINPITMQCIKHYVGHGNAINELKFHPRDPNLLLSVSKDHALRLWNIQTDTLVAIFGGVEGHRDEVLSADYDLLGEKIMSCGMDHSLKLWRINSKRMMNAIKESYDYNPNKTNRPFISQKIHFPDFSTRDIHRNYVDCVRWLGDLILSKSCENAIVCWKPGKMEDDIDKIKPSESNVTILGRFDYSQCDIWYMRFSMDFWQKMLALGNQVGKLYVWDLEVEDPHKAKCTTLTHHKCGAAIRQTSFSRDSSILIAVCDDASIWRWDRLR
Chain of wild type PRC2 (wtPRC2) complex (O75530 whole entry): as above
Chain of wild type PRC2 (wtPRC2) complex (Q15910 whole entry partner): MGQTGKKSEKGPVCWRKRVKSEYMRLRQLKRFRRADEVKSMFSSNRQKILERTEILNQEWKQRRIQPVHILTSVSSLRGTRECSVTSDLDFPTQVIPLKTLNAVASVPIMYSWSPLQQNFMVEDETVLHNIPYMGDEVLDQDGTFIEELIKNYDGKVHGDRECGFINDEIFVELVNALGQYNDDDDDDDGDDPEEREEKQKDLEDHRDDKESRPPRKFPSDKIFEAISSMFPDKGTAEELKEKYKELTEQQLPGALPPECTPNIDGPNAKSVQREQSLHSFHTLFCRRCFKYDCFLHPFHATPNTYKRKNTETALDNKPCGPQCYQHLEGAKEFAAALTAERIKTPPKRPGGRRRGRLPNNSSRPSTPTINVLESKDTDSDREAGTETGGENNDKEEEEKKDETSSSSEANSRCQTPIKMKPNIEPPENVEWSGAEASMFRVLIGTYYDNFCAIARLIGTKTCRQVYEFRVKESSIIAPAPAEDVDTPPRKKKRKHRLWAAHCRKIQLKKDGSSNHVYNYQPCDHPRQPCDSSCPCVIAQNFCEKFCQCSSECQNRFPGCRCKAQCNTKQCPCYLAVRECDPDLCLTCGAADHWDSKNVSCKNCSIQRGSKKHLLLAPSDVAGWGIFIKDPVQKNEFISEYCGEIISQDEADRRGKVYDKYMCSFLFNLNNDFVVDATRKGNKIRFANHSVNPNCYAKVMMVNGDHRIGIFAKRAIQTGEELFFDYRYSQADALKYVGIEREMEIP
Chain of wild type PRC2 (wtPRC2) complex (Q15022 whole entry partner): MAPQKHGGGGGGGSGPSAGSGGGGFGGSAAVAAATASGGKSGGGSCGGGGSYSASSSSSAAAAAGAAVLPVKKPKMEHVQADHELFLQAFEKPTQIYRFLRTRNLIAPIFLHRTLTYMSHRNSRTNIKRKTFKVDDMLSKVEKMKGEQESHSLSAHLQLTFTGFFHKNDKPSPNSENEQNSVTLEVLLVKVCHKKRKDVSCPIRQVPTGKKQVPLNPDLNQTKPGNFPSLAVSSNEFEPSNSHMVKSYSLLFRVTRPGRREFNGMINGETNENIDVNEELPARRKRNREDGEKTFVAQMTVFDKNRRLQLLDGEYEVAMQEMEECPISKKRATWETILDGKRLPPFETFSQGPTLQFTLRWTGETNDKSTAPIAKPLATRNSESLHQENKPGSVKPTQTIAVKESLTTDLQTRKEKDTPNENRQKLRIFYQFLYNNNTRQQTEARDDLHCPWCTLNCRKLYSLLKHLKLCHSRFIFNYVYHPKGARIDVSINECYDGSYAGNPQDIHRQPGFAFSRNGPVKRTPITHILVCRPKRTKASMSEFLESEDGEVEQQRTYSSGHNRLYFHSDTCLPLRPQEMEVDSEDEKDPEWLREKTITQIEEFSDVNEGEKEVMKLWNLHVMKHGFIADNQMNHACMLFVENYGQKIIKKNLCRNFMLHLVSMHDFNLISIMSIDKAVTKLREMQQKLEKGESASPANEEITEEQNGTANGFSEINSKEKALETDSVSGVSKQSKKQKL

On to `Cc1ncc(-c2cnc(NCc3c(F)ccc4c3CCO4)n3cncc23)c(C)n1` [Example 1, 8-(2,4-Dimethylpyrimidin-5-yl)-N-((5-fluoro-2,3-dihydrobenzofuran-4-yl)methyl)imidazo[1,5-c]pyrimidin-5-amine], for which the IC50 is 24.8 nM in assay [1], 13.2 nM in assay [2] and 7.2 nM at EED (1-441)-His protein.
In the same order, the values of `CNC(=O)c1ncn2c(NCc3c(F)ccc4c3CCO4)ncc(-c3cccnc3C)c12` [Example 2, 5-(((5-Fluoro-2,3-dihydrobenzofuran-4-yl)methyl)amino)-N-methyl-8-(2-methylpyridin-3-yl)imidazo[1,5-c]pyrimidine-1-carboxamide] are 12.6 nM, 26.7 nM and 12.3 nM.
In the same order, the values of `Cc1ncc(-c2cnc(NCc3c(F)ccc4c3CCO4)n3cnc(C#N)c23)c(C)n1` [Example 3, 8-(2,4-dimethylpyrimidin-5-yl)-5-(((5-fluoro-2,3-dihydrobenzofuran-4-yl)methyl)amino)imidazo[1,5-c]pyrimidine-1-carbonitrile] are 13.2 nM, 13.7 nM and 6.8 nM.
In the same order, the values of `Cc1ncn2c(NCc3c(F)ccc4c3CCO4)ncc(-c3ccc(S(C)(=O)=O)cc3)c12` [Example 4, N-((5-fluoro-2,3-dihydrobenzofuran-4-yl)methyl)-1-methyl-8-(4-(methylsulfonyl)phenyl)imidazo[1,5-c]pyrimidin-5-amine] are 32.5 nM, 29.5 nM and 15.6 nM.
For the compound `Cc1cc(-c2cnc(NCc3c(F)ccc4c3CCO4)n3cnc(C#N)c23)n(C)n1` [Example 5, 8-(1,3-Dimethyl-1H-pyrazol-5-yl)-5-(((5-fluoro-2,3-dihydrobenzofuran-4-yl)methyl)amino)imidazo[1,5-c]pyrimidine-1-carbonitrile], the IC50 was determined as 3.2 nM in assay [1], 8.9 nM in assay [2] and 3.5 nM at EED (1-441)-His protein.
The corresponding values for `Cc1cn(-c2cnc(NCc3c(F)ccc4c3CCO4)n3cnc(C#N)c23)cn1` [Example 6, 5-(((5-Fluoro-2,3-dihydrobenzofuran-4-yl)methyl)amino)-8-(4-methyl-1H-imidazol-1-yl)imidazo[1,5-c]pyrimidine-1-carbonitrile] are 3.1 nM, 12.5 nM and 4.2 nM.
In the case of `CCOC(=O)c1ncn2c(NCc3cc(OC)c(F)cc3F)ncc(-c3ccc(S(C)(=O)=O)cc3)c12` [Example 7, Ethyl 5-((2,4-difluoro-5-methoxybenzyl)amino)-8-(4-(methylsulfonyl)phenyl)imidazo[1,5-c]pyrimidine-1-carboxylate], the 50% inhibitory concentration (IC50) in assay [1] turned out to be 236 nM; in assay [2], 16.8 nM; on EED (1-441)-His protein, 16.8 nM.
`Cc1ncc(-c2cnc(NCc3c(F)ccc4c3CCO4)n3cnc(CO)c23)c(C)n1` [Example 8, (8-(2,4-Dimethylpyrimidin-5-yl)-5-(((5-fluoro-2,3-dihydrobenzofuran-4-yl)methyl)amino)imidazo[1,5-c]pyrimidin-1-yl)methanol]: the IC50 in assay [1] turned out to be 30.4 nM; in assay [2], 18.6 nM; on EED (1-441)-His protein, 11.6 nM.
In the case of `Cc1ncc(-c2cnc(NCc3c(F)ccc4c3CCO4)n3cnc(Cl)c23)c(C)n1` [Example 9, 1-chloro-8-(2,4-dimethylpyrimidin-5-yl)-N-((5-fluoro-2,3-dihydrobenzofuran-4-yl)methyl)imidazo[1,5-c]pyrimidin-5-amine], the values for the 50% inhibitory concentration (IC50) (in assay [1]; in assay [2]; on EED (1-441)-His protein) were 10.9 nM, 11 nM and 10.4 nM, respectively.
The corresponding values for `Cc1ncc(-c2cnc(NCc3c(F)ccc4c3CCO4)n3cnc(-c4ncco4)c23)c(C)n1` [Example 11, 8-(2,4-dimethylpyrimidin-5-yl)-N-((5-fluoro-2,3-dihydrobenzofuran-4-yl)methyl)-1-(oxazol-2-yl)imidazo[1,5-c]pyrimidin-5-amine] are 6.9 nM, 17.1 nM and 12.6 nM.
The corresponding values for `C#Cc1ncn2c(NCc3c(F)ccc4c3CCO4)ncc(-c3cccnc3C)c12` [Example 12, 1-Ethynyl-N-((5-fluoro-2,3-dihydrobenzofuran-4-yl)methyl)-8-(2-methylpyridin-3-yl)imidazo[1,5-c]pyrimidin-5-amine] are 48.9 nM, 6.8 nM and 5.4 nM.
The corresponding values for `CS(=O)(=O)c1ncn2c(NCc3c(F)ccc4c3CCO4)ncc(-c3cccnc3C(F)F)c12` [Example 13, 8-(2-(Difluoromethyl)pyridin-3-yl)-N-((5-fluoro-2,3-dihydrobenzofuran-4-yl)methyl)-1-(methylsulfonyl)imidazo[1,5-c]pyrimidin-5-amine] are 2.3 nM, 7.7 nM and 3.7 nM.
For `Cc1ncc(-c2cnc(NCc3c(F)ccc4c3CCO4)n3cnc([S+]([O-])c4ccccc4)c23)c(C)n1` (stereo not shown) [Example 14, 8-(2,4-Dimethylpyrimidin-5-yl)-N-((5-fluoro-2,3-dihydrobenzofuran-4-yl)methyl)-1-(phenylsulfinyl)imidazo[1,5-c]pyrimidin-5-amine], the results for the IC50 (in assay [1]; in assay [2]; at EED (1-441)-His protein) were 4.9 nM, 23.4 nM and 10.4 nM, respectively.
Turning to `COc1cccc(F)c1CNc1ncc(-c2ccc(CN(C)C)cc2)c2cncn12` [Example 68, 8-(4-((dimethylamino)methyl)phenyl)-N-(2-fluoro-6-methoxybenzyl)imidazo[1,5-c]pyrimidin-5-amine], the results for the IC50 (in assay [2]; on EED (1-441)-His protein) were 246 nM and 201 nM, respectively.
Take `CCN1CCN(c2ccc(-c3cnc(NCc4c(F)ccc5c4CCO5)n4cnc(C#N)c34)cn2)CC1` [Example 81, 8-(6-(4-ethylpiperazin-1-yl)pyridin-3-yl)-5-(((5-fluoro-2,3-dihydrobenzofuran-4-yl)methyl)amino)imidazo[1,5-c]pyrimidine-1-carbonitrile]: the IC50 is 14.8 nM in assay [1] and 35.1 nM in assay [2].
On to `CCOC(=O)c1ncn2c(NCc3c(F)ccc4c3CCO4)ncc(-c3cccnc3C)c12` [Example 95, ethyl 5-(((5-fluoro-2,3-dihydrobenzofuran-4-yl)methyl)amino)-8-(2-methylpyridin-3-yl)imidazo[1,5-c]pyrimidine-1-carboxylate], for which the IC50 worked out at 2 nM in assay [1] and 5.5 nM on EED (1-441)-His protein.
For the compound `Cc1ncccc1-c1cnc(NCc2c(F)ccc3c2CCO3)n2cnc(C(=O)NC3COC3)c12` [Example 106, 5-(((5-fluoro-2,3-dihydrobenzofuran-4-yl)methyl)amino)-8-(2-methylpyridin-3-yl)-N-(oxetan-3-yl)imidazo[1,5-c]pyrimidine-1-carboxamide], the IC50 was 10.9 nM in assay [1] and 16.5 nM in assay [2].
In the same order, the values of `CS(=O)(=O)c1ccc(-c2cnc(NCc3c(F)ccc4c3CCO4)n3cnc(-c4ccccc4)c23)cc1` [Example 110, N-((5-fluoro-2,3-dihydrobenzofuran-4-yl)methyl)-8-(4-(methylsulfonyl)phenyl)-1-phenylimidazo[1,5-c]pyrimidin-5-amine] are 72.2 nM and 9.4 nM.
